Laboratory results from patent US20110033430A1, “METHODS FOR THE INDUCTION OF A CELL TO ENTER THE ISLET 1+ LINEAGE AND A METHOD FOR THE EXPANSION THEREOF” (THE GENERAL HOSPITAL CORPORATION, priority 2007, published 2011).
Entries after “also recorded” stand apart in the source; their conditions may differ.

Legend:
[1] = system: postnatal isl1+ cardiovascular progenitors; assay: Expansion of postnatal isl1+ cardiovascular progenitors, isl1 immunostaining; assay type: cell-based, mouse; set-up: increase of number of isl1+ progenitors versus control: dose or concentration left out as unconfirmed; settings: for number of isl1+ progenitors: isl1 immunostaining, versus control
Description: Immunohistochemical Analyses and lacZ Staining. Cells in culture or paraffin embedded sections were fixed with 4% paraformaldehyde and subjected to immunostaining. For mouse embryo cryosections, they were saturated with 20% sucrose followed by section and 2% PFA fix for 10 min at room temperature. The following primary antibodies were used in this study: isl1 (mouse monoclonal antibody, clone 39.4D5, clone 2D6 (Developmental Studies Hybridoma Bank, 1:100), cardiac troponin T (mouse monoclonal antibody, NeoMarkers, 1:200), smooth muscle myosin heavy chain (rabbit polyclonal, Biomedical Technologies Inc., 1:100), smooth muscle actin (mouse monoclonal, clone 1A4, Dako, 1:100; rabbit polyclonal, Abcam), phosphohistone H3 (rabbit polyclonal, Upstate). Alexa Fluor 488- or Alexa Fluor 594-conjugated secondary antibodies specific to the appropriate species were used (Molecular Probes, 1:350). 3D reconstruction was done using Winsuf from Surfdriver Software. For immunoperoxidase staining, the VECTASTAIN ABC® system (VECTOR Laboratories) was used, accordingly to the vendors' instructions. 5 μm frozen sections and cultured cells were fixed with 0.2% and 0.05% glutaraldehyde respectively for 10 min at 4° C. followed by 3 times wash with PBS. LacZ stainings were then performed on these samples by incubating with X-Gal solution containing 40 mM HEPES, pH 7.4, 5 mM K3(Fe(CN)6), 5 mM K4(Fe(CN)6), 2 mM MgCl2, 15 mM NaCl, and 1 mg/ml X-Gal. For LacZ staining on EB-derived clones expanded on CMC, 0.02% NP-40 was added to the X-Gal solution for better permeabilization. When combining LacZ staining with immunoperoxidase analyses, samples were processed first for LacZ staining at room temperature over night, followed by a re-fixation with 4% paraformaldehyde prior to the immunoperoxidase stainings for specific epitopes or by re-fixation with 2% gluteraldehyde to perform EM studies.
Statistic Analysis. Data were analyzed with two-tailed Student's t test and the results reported are statistically significant with p value <0.05. Standard error of the mean (SEM) is given for each mean value. For immunofluorescent analyses for postnatal isl1^+ cardiovascular progenitors, the cells within the whole well in an 8-well chamber slide were examined for Isl1 expression to obtain better statistic comparison.
Although there was only a small increase over the control, the effect of these compounds was highly reproducible and statistically significant (p<0.05, 0.01, or 0.001, FIG. 2C). […] Two of these compounds were unknown (compound A and compound B), and the third was 6-bromoindirubin-3′-oxime (BIO), previously shown to be an inhibitor of GSK-3 (Meijer et al., 2003). BIO has been recently shown to promote self-renewal of both human and mouse ES cells through activation of the wnt/β-catenin pathway in combination with other signaling inputs (Sato et al., 2004). The inventors explored the role of BIO on the renewal of isl1^+ progenitors.
Wnt/β-Catenin Pathway Plays a Pivotal Role in the Control of Isl1+ Progenitor Expansion. […] The inventors examined whether Wnt3a, a well-established ligand in the Wnt/β-catenin pathway (Logan and Nusse, 2004), was able to expand postnatal isl1^+ progenitors.

[2] = system: human neonatal isl1+ progenitors; assay: Expansion of human neonatal isl1+ progenitors, isl1 immunostaining; assay type: cell-based; settings: human neonatal CMC, 4 days
Description: Isolation and Cell Culture Conditions of Human Postnatal Cardiac Progenitors. Biopsies are cut in small pieces and washed in solution A (10 mM Hepes, 35 mM NaCl, 10 mM glucose, 134 mM sucrose, 16 mM Na2HPO4, 25 mM NaHCO3, 7.75 mM KCl, 1.18 mM KH2PO4, pH 7.4), supplemented with 30 mM 2,3 butanedione 2-monoxime and 0.5 mM EGTA. First digestion step is performed in solution A supplemented with 0.5% BSA, 200 UI/ml of collagenase type II (Worthington) and 6 UI/ml protease type XXIV (Sigma) for 20 min at 37° C. to remove red blood cells and cell debris. Four digestion steps are performed in solution A supplemented with 400 UI/ml collagenase type V for 20 min at 37° C. and centrifuged at 30×g for 1 min. The supernatant is neutralized from the collagenase by adding ⅕ of NCS (newborn calf serum) and are centrifuged at 1300 rpm for 3-5 min. Pellet is resuspended in DMEM supplemented with 10% NCS, 5% FBS and Pen-Strep, and cells are seeded on chamber slide. BIO was added to the culture at different doses in complete progenitor medium and cultured for 4 days prior to immunostaining for Isl1.
In order to test whether BIO was capable of expanding human neonatal isl1^+ progenitors, human neonatal CMC were isolated from the biopsies of patients with congenital heart defects into single cells and cultured for 4 days in the presence or absence of BIO.

CMC = assay: Cleaved caspase-3 immunostaining (apoptosis); assay type: cell-based, mouse; settings: treated CMC
Description: To further validate the specificity of BIO function, the inventors tested two other ATP-competitive GSK-3-specific inhibitors: an acetoxime analog of BIO and 1-Azakenpaullone (Kunick et al., 2004; Meijer et al., 2003). […] Taken together, the inventors have discovered that BIO promotes the expansion of isl1+ progenitors by inhibiting GSK-3 activity.

[3] = system: postnatal isl1+ progenitors in cardiac mesenchymal cells (CMC); assay: High-throughput chemical screening: β-gal activity quantified by luminescence (Beto-Glo); assay type: cell-based, mouse; settings: CMC with isl1+ progenitors, 4 days treatment, versus DMSO control
Description: Progenitors and High-Throughput Chemical Screening. […] Briefly, 30-40 hearts from 1-5 day-old isl1-mER-Cre-mER/R26R pups were used to prepare CMC, containing isl1+ progenitors marked by β-galactosidase. 4-OH-TM (Sigma), active form of tamoxifen, was added to the culture 1 day after plating at 1 μm. These were expanded for 7 days, trypsinized, and seeded at a density of 3,000 cells per well in 384-well plates.
Isolation of Murine Postnatal Cardiac Progenitors and High-throughput Chemical Screening. […] Briefly, 30-40 hearts from 1-5 day-old is1-mER-Cre-mER/R26R pups were used to prepare CMC, containing isl1^+ progenitors marked by β-galactosidase. 4-OH-TM (Sigma), active form of tamoxifen, was added to the culture 1 day after plating at 1 μm. These were expanded for 7 days, then trypsinized, and seeded at a density of 3,000 cells per well in a 384-well plate.
To find cardiac mesenchymal cells (CMC)-derived environmental cues involved in the renewal of isl1+ progenitors, the inventors developed a high-throughput chemical screening system, based on the coculture of CMC with postnatal isl1+ progenitors (FIG. 2A). […] The inventors used this library to screen for small molecules that would expand the rare population of postnatal isl1+ progenitors.

[4] = system: anterior heart field isl1+ progenitors (AHF-GFP ES cells); assay: Expansion of ES cell-derived anterior heart field GFP+/isl1+ cells on CMC feeder, FACS; assay type: cell-based, mouse; settings: 7 days on CMC feeder, versus control
Description: Differentiation was induced by forming embryoid bodies (EB's) in hanging drops of 600 cells in 15 μL of media without LIF. On day 6, the EB's were trypsinized into single cell suspension and sorted on the basis of GFP expression using flow cytometry. GFP positive cells were plated on a neonatal cardiac mesenchymal feeder layer for 7 days with one of four conditions: DMSO, BIO, and conditioned media from either control cells (L-Cells) or cells overexpressing wnt3A. After 7 days of expansion on the cardiac mesenchymal feeder layer, the cells were trypsinized and FACS sorted. Differentiation of the GFP positive cells was triggered as follow: into myocytes, on fibronectin by using DMEM/M199 (4:1 ratio) medium containing 10% horse serum and 5% FBS; into SM cells, on fibronectin by using DMEM/F12 containing B27 supplement, 2% FBS, and 10 ng/ml EGF.
To directly determine whether Wnt ligands are secreted from the CMC to promote the renewal of isl1^+ progenitors in a paracrine manner, the inventors developed an in vitro reconstitution of the mesenchymal niche.
To further characterize the nature of the CMC-derived cues, the inventors tested the ability of Wnt3a to reproduce this effect.

other protein kinases = settings: Plotkin et al., 2003; cited from earlier work
murine Wls/Evi = molecular target: T1, murine Wls/Evi (Mus musculus, UniProt Q6DID7); assay: Wnt reporter (superTOPFLASH) coculture with siRNA-transfected Wnt3a-producing cells, luciferase; assay type: cell-based; settings: coculture with transfected Wnt3a-secreting cells, versus control
T1 construct: endogenous in cells; host or cells: Wnt3a-producing (Wnt3a-secreting) cell line (ATCC), cocultured with superTOPFLASH Wnt reporter cells
T1 sequence (Q6DID7 1-541): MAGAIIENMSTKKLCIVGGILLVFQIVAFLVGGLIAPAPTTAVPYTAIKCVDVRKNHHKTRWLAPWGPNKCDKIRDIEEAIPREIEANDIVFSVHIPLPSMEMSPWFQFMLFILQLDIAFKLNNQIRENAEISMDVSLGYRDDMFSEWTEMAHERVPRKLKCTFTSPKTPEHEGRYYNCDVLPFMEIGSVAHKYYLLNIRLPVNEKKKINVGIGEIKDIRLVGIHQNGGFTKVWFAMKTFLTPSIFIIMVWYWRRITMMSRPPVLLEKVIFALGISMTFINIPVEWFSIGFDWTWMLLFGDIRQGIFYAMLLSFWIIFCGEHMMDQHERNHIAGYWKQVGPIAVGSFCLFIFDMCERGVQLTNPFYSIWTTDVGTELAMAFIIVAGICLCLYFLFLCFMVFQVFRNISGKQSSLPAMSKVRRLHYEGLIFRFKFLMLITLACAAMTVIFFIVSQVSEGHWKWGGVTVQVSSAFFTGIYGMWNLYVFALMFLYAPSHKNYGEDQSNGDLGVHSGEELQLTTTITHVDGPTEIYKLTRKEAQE
Description: Production of Reagents for Wnt Pathway. Wnt3a or control-conditioned medium was produced as following. A Wnt3a-secreting cell line (ATCC) was allowed to grow to conflency and subcultured at 1:20 ratio prior to replenish with fresh medium. Three batches of conditioned medium were harvested every 48 hrs. Dkk1-conditioned medium was produced by transiently transfecting a Dkk1-expressing cDNA (generously provided by Dr. Randall T. Moon) into the HEK293T cell line with FuGENE 6 (Roche). The supernatant was harvested 72 hrs after transfection. A Wnt-reporter cell line, superTOPFLASH, was a generous gift from Dr. Randall T. Moon.
Small hairpin RNAs (shRNAs) oligonucleotide sequences were designed based on the following target sequences: siWLS-A ([…]) (SEQ ID NO:1) and siWLS-B (GGGTTACCGTGATGATATG, (SEQ ID NO:2) and subcloned into the retro-viral vector, RNAi-Ready pSIREN-RetroQ-DsRed-Express (Clontech) according to vendor's instructions. Negative control shRNA annealed oligonucleotide was provided by the vendor and cloned to the same vector. Retro-viral siRNAi particles were produced by transiently transfect these vectors into the packaging cell line EcoPack 2-293 cells with GENE 6 (Roche). Viral supernatant was harvested 72 hrs after transfection.
The inventors confirmed this effect by blocking the secretion of Wnt ligands from the CMC. […]

[5] = system: isl1-nlacZ knockin ES cell-derived precursors; assay: Prespecification of mesodermal precursors toward MICPs on CMC feeder, single β-gal+ cells after 24 hr; assay type: cell-based, mouse; settings: 24 hr on CMC feeder, versus control
Description: Immunohistochemical Analyses and lacZ Staining. Cells in culture or paraffin embedded sections were fixed with 4% paraformaldehyde and subjected to immunostaining. For mouse embryo cryosections, they were saturated with 20% sucrose followed by section and 2% PFA fix for 10 min at room temperature. The following primary antibodies were used in this study: isl1 (mouse monoclonal antibody, clone 39.4D5, clone 2D6 (Developmental Studies Hybridoma Bank, 1:100), cardiac troponin T (mouse monoclonal antibody, NeoMarkers, 1:200), smooth muscle myosin heavy chain (rabbit polyclonal, Biomedical Technologies Inc., 1:100), smooth muscle actin (mouse monoclonal, clone 1A4, Dako, 1:100; rabbit polyclonal, Abcam), phosphohistone H3 (rabbit polyclonal, Upstate). Alexa Fluor 488- or Alexa Fluor 594-conjugated secondary antibodies specific to the appropriate species were used (Molecular Probes, 1:350). 3D reconstruction was done using Winsuf from Surfdriver Software. […]
The wnt/β-Catenin Pathway Regulates the Prespecification, Expansion, and Differentiation of Isl1+ Cardiovascular Progenitors. […] To score the effect of the CMC feeder on the prespecification of mesodermal precursors toward MICPs, the inventors quantified the single b-gal^+ cells 24 hr after treatment with various reagents (FIG. 7A). […]

## O=C1Cc2c([nH]c3ccc(Br)cc23)-c2ncccc2N1 [1-Azakenpaullone]
[1]
  number of isl1+ progenitors: substantially increased

## O=C1Nc2cc(Br)ccc2/C1=C1/Nc2ccccc2/C1=N\O [BIO, 6-bromoindirubin-3′-oxime]
[1]
  increase of number of isl1+ progenitors versus control: 7 fold
  number of isl1+ progenitors: substantially increase; also recorded: increased the number of isl1^+ progenitors in a dose-dependent manner
[1]; BIO at 2.5 μM
  cluster formation of isl1+ progenitors, increase versus control: 11.6 fold
[1]; versus control treated samples
  formation of isl1+ clusters: promoted isl1^+ progenitors to form large clusters
[2]
  number of human Isl1+ progenitors: markedly increased
CMC
  apoptosis, cleaved caspase-3 immunostaining: no appreciable apoptosis
[3]
  β-gal activity (luciferase activity): significantly increase
[4]
  expansion of GFP+/Isl1+ anterior heart field cells: marked expansion; also recorded: greater expansion

## CC(=O)O/N=C1/C(=C2/C(=O)Nc3cc(Br)ccc32)Nc2ccccc21 [acetoxime analog of BIO]
[1]
  number of isl1+ progenitors: substantially increased

## GSK-3 peptide inhibitor: cell-permeable and substrate-competitive GSK-3 peptide inhibitor (GKEAPPAPPQSP)
[1]
  number of isl1+ progenitors: significantly expand
Other protein kinases
  inhibitory effect on other protein kinases: negligible inhibitory effect

## siWLS-A: siRNA/shRNA against murine Wls/Evi, target sequence CACAAATCCTTTCTACAGTAT (the letters are possibly those of the target site)
Murine Wls/Evi
  luciferase activity of Wnt reporter cells (Wnt3a secretion): significant reduction; also recorded: significantly decreased
[5]
  formation of MICPs (single β-gal+ cells): significantly increased

## siWLS-B: siRNA/shRNA against murine Wls/Evi, target sequence GGGTTACCGTGATGATATG (the letters are possibly those of the target site)
Murine Wls/Evi
  luciferase activity of Wnt reporter cells (Wnt3a secretion): significant reduction; also recorded: significantly decreased
